Experimental data: PMC11189555, “Aryl amino acetamides prevent Plasmodium falciparum ring development via targeting the lipid-transfer protein PfSTART1” (Nature Communications, 2024)
“And” between values parts separate entries of the source, which are not always exact repeats. Identical values can stand only once.

Assays:
ring-stage parasites = assay: Parasite reduction ratio assay; assay type: cell-based, Plasmodium falciparum
Procedure: Parasite reduction ratio assay. This was performed as previously described 9,10.
Briefly, asynchronous ring -stage parasites at 0.5% parasitemia and 2% haematocrit were exposed to compounds at 10 x EC50 of growth for five days with daily drug renewal. After each 24 h, a well from each treatment group was taken and washed three times in complete RPMI and final volume adjusted to 2% haematocrit. The washed culture was then aliquoted into a 96 well U-bottom plate and a 1:3 serial dilution into fresh uninfected RBCs was performed with four technical replicates for each time point. Plates were maintained in normal culturing conditions: media was replaced, and fresh RBCs given 1-2 times a week for three weeks, after which parasite growth was measured via lactate dehydrogenase assays. The number of viable parasites was calculated using the formula xn-1 +1, where x is the dilution factor and n is the number of wells that contain parasite growth. The viable parasite value was then expressed in log units and parasite reduction ratio was calculated as a decrease in […]

[1] = test system: processed PfSTART1 (proc1, proc2) in schizonts; assay: Processing of PfSTART1 along schizogony with egress inhibitors (Western blot densitometry); assay type: cell-based, Plasmodium falciparum; details: for Normalised by EXP2: START full length / Normalised by EXP2: START processed 1 / Normalised by EXP2: START processed 2 / Normalised by EXP2 and full length: START processed 1 / Normalised by EXP2 and full length: START processed 2 / Raw densitometry: START full length / Raw densitometry: START processed 1 / Raw densitometry: START processed 2: biological replicates 1-5
Procedure: Magnet-purified schizonts were harvested after a 4 h treatment with the following: DMSO (0.1%), 49c (10 nM), C1 (1.5 μM) or E64 (10 μM). Parasites were washed in ice-cold PBS + PI (centrifugation steps carried out at 4 °C at 3,000 g). Samples were resuspended in NRSB, sonicated, boiled 10 min at 80 °C and separated by electrophoresis as explained previously. The parasites used in this experiment were 3D7 transfected with p1.2-ABH(WT)-83-HA-glmS, i.e. parasites containing a recodonised version of PF3D7_0403800 within its genome. […]
(DMSO). Schizonts were saponin -lysed. (E) Synchronised 3D7 schizonts were magnet-purified, stalled at different stages of egress: 4 h with 10 nM 49c (plasmepsin X inhibitor), 1.5 µM compound 1 (C1; PKG inhibitor), 10 µM E64, or allowed to progress (DMSO). Whole cells were harvested. PEXEL-cleaved, and the two further processed forms of PfSTART1 are indicated by solid and empty arrows respectively.
(F) Densitometry of processed PfSTART1 (proc1 and proc2) was normalised to the corresponding PEXEL-cleaved PfSTART1. n=10 replicates (n=6 for the 49c treatment). Two-way ANOVA with Šídák's multiple comparisons test (compare each

[2] = schizonts treated 4 h: 49c 10 nM, C1 1.5 μM, E64 10 μM, vs DMSO and other treatments

CCN(CC)CCCC(C)Nc1ccnc2cc(Cl)ccc12 (stereo not drawn) [CQ, chloroquine, reference compound]
killing profile (ring-stage parasites; 10xEC50: 75 nM CQ, 60 nM W-991): fast-acting | PRR (ring-stage parasites; Replicate 1, PRR calculations): 4.528 | log(parasite viability) +1 (ring-stage parasites; Replicate 1, T=1): 2.863 | Parasite viability (ring-stage parasites; Replicate 1, T=1, 1:3 dilution): 729 | log(parasite viability) +1 (ring-stage parasites; Replicate 1, T=2): 0.6021 | Parasite viability (ring-stage parasites; Replicate 1, T=2, 1:3 dilution): 3 | log(parasite viability) +1 (ring-stage parasites; Replicate 1, T=3): 0 | Parasite viability (ring-stage parasites; Replicate 1, T=3, 1:3 dilution): 0 | log(parasite viability) +1 (ring-stage parasites; Replicate 1, T=4): 0 | Parasite viability (ring-stage parasites; Replicate 1, T=4, 1:3 dilution): 0 | log(parasite viability) +1 (ring-stage parasites; Replicate 1, T=5): 0 | Parasite viability (ring-stage parasites; Replicate 1, T=5, 1:3 dilution): 0 | log(parasite viability) +1 used in PRR calculations (ring-stage parasites; Replicate 2, Hours 0): 5.248 | PRR (ring-stage parasites; Replicate 2, PRR calculations): 2.861 | Parasite viability +1 (ring-stage parasites; Replicate 2, T=1): 19684 | log(parasite viability) +1 (ring-stage parasites; Replicate 2, T=1): 4.294 | Parasite viability (ring-stage parasites; Replicate 2, T=1, 1:3 dilution): 19683 | Parasite viability +1 (ring-stage parasites; Replicate 2, T=2): 10 | log(parasite viability) +1 (ring-stage parasites; Replicate 2, T=2): 1 | Parasite viability (ring-stage parasites; Replicate 2, T=2, 1:3 dilution): 9 | Parasite viability +1 (ring-stage parasites; Replicate 2, T=3): 244 | log(parasite viability) +1 (ring-stage parasites; Replicate 2, T=3): 2.387 | Parasite viability (ring-stage parasites; Replicate 2, T=3, 1:3 dilution): 243 | Parasite viability +1 (ring-stage parasites; Replicate 2, T=4): 82 | log(parasite viability) +1 (ring-stage parasites; Replicate 2, T=4): 1.914 | Parasite viability (ring-stage parasites; Replicate 2, T=4, 1:3 dilution): 81 | Parasite viability +1 (ring-stage parasites; Replicate 2, T=5): 1 | log(parasite viability) +1 (ring-stage parasites; Replicate 2, T=5): 0 | Parasite viability (ring-stage parasites; Replicate 2, T=5, 1:3 dilution): 0 | log(parasite viability) +1 (ring-stage parasites; replicate 3, 0 hours, start value (UT T=0) used in PRR calculations): 5.248 | Parasite viability (1:3 dilution) (ring-stage parasites; replicate 3, T=1): 6561 | log(parasite viability) +1 (ring-stage parasites; replicate 3, T=1): 3.817 | Parasite viability (1:3 dilution) (ring-stage parasites; replicate 3, T=2): 9 | log(parasite viability) +1 (ring-stage parasites; replicate 3, T=2 (48 hours in PRR calculations)): 1 | Parasite viability (1:3 dilution) (ring-stage parasites; replicate 3, T=3): 0 | log(parasite viability) +1 (ring-stage parasites; replicate 3, T=3 (72 hours in PRR calculations)): 0 | Parasite viability (1:3 dilution) (ring-stage parasites; replicate 3, T=4): 0 | log(parasite viability) +1 (ring-stage parasites; replicate 3, T=4): 0 | Parasite viability (1:3 dilution) (ring-stage parasites; replicate 3, T=5): 0 | log(parasite viability) +1 (ring-stage parasites; replicate 3, T=5 (120 hours in PRR calculations)): 0 | PRR (ring-stage parasites; replicate 3, difference of log viability over 48 h (CQ 0-48 hours, W991 72-120 hours)): 4.248

CC(C)C[C@H](NC(=O)[C@H]1O[C@@H]1C(=O)O)C(=O)NCCCCN=C(N)N [E64]
Normalised by EXP2: START full length ([1]; BLOT AMA1, '+' lane): 9.91E+01 and 2.44E+01 and 1.44E+02 and 6.49E+01 and 9.10E+02 | Normalised by EXP2: START processed 1 ([1]; BLOT AMA1, '+' lane): 5.50E+01 and 7.11E+00 and 4.58E+01 and 1.53E+01 and 3.44E+02 | Normalised by EXP2: START processed 2 ([1]; BLOT AMA1, '+' lane): 9.13E+01 and 1.13E+01 and 7.80E+01 and 1.03E+01 and 3.88E+02 | Normalised by EXP2 and full length: START processed 1 ([1]; BLOT AMA1, '+' lane): 5.54E+01 and 2.91E+01 and 3.18E+01 and 2.36E+01 and 3.78E+01 | Normalised by EXP2 and full length: START processed 2 ([1]; BLOT AMA1, '+' lane): 9.21E+01 and 4.63E+01 and 5.42E+01 and 1.59E+01 and 4.26E+01 | Raw densitometry: START full length ([1]; BLOT AMA1, '+' lane): 9.54 and 2.49E+01 and 26.4 and 2.01E+01 and 2.02E+01 | Raw densitometry: START processed 1 ([1]; BLOT AMA1, '+' lane): 2.78 and 7.92E+00 and 6.24 and 7.59E+00 and 1.12E+01 | Raw densitometry: START processed 2 ([1]; BLOT AMA1, '+' lane): 4.42 and 1.35E+01 and 4.19 and 8.56E+00 and 1.86E+01 | Normalised by EXP2: START full length ([1]; BLOT AMA1, '-' lane): 1.05E+02 and 2.53E+01 and 1.75E+02 and 7.60E+01 and 6.88E+02 | Normalised by EXP2: START processed 1 ([1]; BLOT AMA1, '-' lane): 6.93E+01 and 7.41E+00 and 5.19E+01 and 1.82E+01 and 2.72E+02 | Normalised by EXP2: START processed 2 ([1]; BLOT AMA1, '-' lane): 9.19E+01 and 9.39E+00 and 9.29E+01 and 7.65E+00 and 2.73E+02 | Normalised by EXP2 and full length: START processed 1 ([1]; BLOT AMA1, '-' lane): 6.61E+01 and 2.93E+01 and 2.98E+01 and 2.39E+01 and 3.96E+01 | Normalised by EXP2 and full length: START processed 2 ([1]; BLOT AMA1, '-' lane): 8.76E+01 and 3.72E+01 and 5.32E+01 and 1.01E+01 and 3.96E+01 | Raw densitometry: START full length ([1]; BLOT AMA1, '-' lane): 8.29 and 2.80E+01 and 29.3 and 1.80E+01 and 2.42E+01 | Raw densitometry: START processed 1 ([1]; BLOT AMA1, '-' lane): 2.43 and 8.33E+00 and 7.01 and 7.12E+00 and 1.60E+01 | Raw densitometry: START processed 2 ([1]; BLOT AMA1, '-' lane): 3.08 and 1.49E+01 and 2.95 and 7.13E+00 and 2.12E+01 | Normalised by EXP2: START full length ([1]; BLOT Rh5, '+' lane): 7.41E+01 and 1.24E+02 and 2.65E+01 and 1.82E+02 and 1.65E+02 | Normalised by EXP2: START processed 1 ([1]; BLOT Rh5, '+' lane): 5.05E+01 and 4.02E+01 and 7.30E+00 and 3.75E+01 and 7.40E+01 | Normalised by EXP2: START processed 2 ([1]; BLOT Rh5, '+' lane): 7.26E+01 and 3.45E+01 and 1.15E+01 and 3.53E+01 and 8.50E+01 | Normalised by EXP2 and full length: START processed 1 ([1]; BLOT Rh5, '+' lane): 6.81E+01 and 3.26E+01 and 2.75E+01 and 2.05E+01 and 4.47E+01 | Normalised by EXP2 and full length: START processed 2 ([1]; BLOT Rh5, '+' lane): 9.79E+01 and 2.79E+01 and 4.33E+01 and 1.93E+01 and 5.14E+01 | Raw densitometry: START full length ([1]; BLOT Rh5, '+' lane): 12.9 and 1.34E+01 and 3.87E+01 and 2.57E+01 and 1.42E+01 | Raw densitometry: START processed 1 ([1]; BLOT Rh5, '+' lane): 4.2 and 3.69E+00 and 7.95E+00 and 1.15E+01 and 9.67E+00 | Raw densitometry: START processed 2 ([1]; BLOT Rh5, '+' lane): 3.6 and 5.80E+00 and 7.48E+00 and 1.32E+01 and 1.39E+01 | Normalised by EXP2: START full length ([1]; BLOT Rh5, '-' lane): 8.04E+01 and 1.20E+02 and 3.28E+01 and 2.15E+02 and 2.08E+02 | Normalised by EXP2: START processed 1 ([1]; BLOT Rh5, '-' lane): 5.15E+01 and 3.77E+01 and 7.46E+00 and 4.92E+01 and 7.28E+01 | Normalised by EXP2: START processed 2 ([1]; BLOT Rh5, '-' lane): 6.74E+01 and 3.23E+01 and 1.26E+01 and 2.81E+01 and 6.72E+01 | Normalised by EXP2 and full length: START processed 1 ([1]; BLOT Rh5, '-' lane): 6.41E+01 and 3.14E+01 and 2.27E+01 and 2.28E+01 and 3.49E+01 | Normalised by EXP2 and full length: START processed 2 ([1]; BLOT Rh5, '-' lane): 8.38E+01 and 2.69E+01 and 3.85E+01 and 1.30E+01 and 3.22E+01 | Raw densitometry: START full length ([1]; BLOT Rh5, '-' lane): 9.62 and 1.50E+01 and 4.00E+01 and 3.32E+01 and 1.67E+01 | Raw densitometry: START processed 1 ([1]; BLOT Rh5, '-' lane): 3.02 and 3.41E+00 and 9.14E+00 and 1.16E+01 and 1.07E+01 | Raw densitometry: START processed 2 ([1]; BLOT Rh5, '-' lane): 2.59 and 5.78E+00 and 5.21E+00 and 1.07E+01 and 1.40E+01 | level of PfSTART1proc1 normalised to PEXEL-cleaved PfSTART1 [1, 2]: contained most of both processed bands | level of PfSTART1proc2 normalised to PEXEL-cleaved PfSTART1 [1, 2]: significant enrichment in PfSTART1proc2
